Drawing on patent US12527327B2, “High hyaluronate multi-purpose disinfection solutions for ophthalmic applications” (CIS BIOPHARMA AG, priority 2019, dated 2026), this text covers viability for 1 compound.

The nature of the data set: XTT cytotoxicity assay according to ISO 10993. The conditions noted are these: mouse. From the text:
A larger scale batch (100 Liter) of Formulation E was further evaluated in more detail with an XTT test according to ISO 10993, published by the International Organization for Standardization: “Biological Evaluation of Medical Devices”, Part 1: “Evaluation and testing within a risk management process”, 2018, Part 5: “Tests for in vitro cytotoxicity”, 2009 using a valuated method from the ICCR-Roßdorf GmbH (Germany) and a Xenometrix test kit. With the XTT assay, cell proliferation and viability as well as the mitochondrial metabolic competence of the cells after treatment with a test item is determined […]. The XTT test is based on the cleavage of the yellow tetrazolium salt XTT [_(sodium 3′-(1-phenylaminocarbonyl)-(3,4-tetrazolium)-bis-(4-methoxy-6-nitro)-benzenesulfonic acid hydrate)] to form an orange water soluble formazan dye by dehydrogenase activity in active mitochondria. This method was first described 1988 by SCUDIERO et al.
In brief, the potential cytotoxic effect was evaluated with a dilution series of formulation E in complete medium [RPMI 1640 medium (including glutamax), supplemented with 10% FCS, 1 mM sodium pyruvate, and 100 units/mL penicillin, and 100 μg/mL streptomycin] resulting in the following end concentrations 39.1 μg/mL, 78.1 μg/mL, 156 μg/mL, 313 μg/mL, 625 μg/mL, 1250 μg/mL; 2500 μg/mL, 5000 μg/mL. Subsequently the effect of the solution was examined after 24±1 h treatment time on prior prepared mouse L929 cell line (supplied by DSMZ, 38124 Braunschweig, Germany). In parallel several controls were tested as well:
Medium Control=Complete medium; Solvent control=Complete medium, Positive control=Sodium dodecyl sulfate (SDS; purity: ≥99%); Solvent=deionized water, diluted with complete medium to a ratio of 1:10 (v/v). The positive control was tested in 8 concentrations in a range from 3.1-250 μg/mL. Solvent control for the positive control=Complete medium and 10% (v/v) deionized water.
At the end of the incubation period, 50 μL of the XTT labelling mixture (Xenometrix, Allschwil, Switzerland) were added to each well. The cells were incubated and subsequently transferred to a microplate reader and the absorbance values were determined (Versamax® Molecular Devices, software SoftMax Pro Enterprise (version 4.7.1)) at 450 nm (reference wavelength 690 nm). A decrease in number of living cells results in a decrease in the overall activity of mitochondrial dehydrogenases in the sample. This decrease directly correlates to the amount of orange formazan formed, as monitored by the absorbance. The relative absorbance (=viability) as compared to the solvent control is calculated using this formula: […]
To calculate the concentration of toxicant required to reduce the relative absorbance to 50% of the solvent control (XTT50) the following formula is used:
[formula] • a) Conc.>50=max. measured concentration with the % of solvent control >50% • b) Conc.<50=min. measured concentration with the % of solvent control <50% • c) %>50=relative absorbance at a) in % • d) %<50=relative absorbance at b) in %
The lower the XTT50 value, the higher is the cytotoxic potential of the test item.
Background: Tetrazolium dyes change colour on reduction, which living cells bring about.

As a reminder, the viability is a read-out of living cells in per cent, often relative to untreated cells. In turn, `CCCCCCCCCCCCOS(=O)(=O)[O-].[Na+]` [SDS, Sodium dodecyl sulfate] yielded a viability at 3.1 μg/mL of 96.9%, a viability at 6.3 μg/mL of 97.2%, a viability at 12.5 μg/mL of 99.9% and a viability at 25 μg/mL of 91.7%. For the same compound, the viability at 50 μg/mL worked out at 85%, the viability at 100 μg/mL was determined as 5.8%, the viability at 125 μg/mL is 1.63% and the viability at 250 μg/mL came to 0.16%.
